Experimental data from ChEMBL document CHEMBL4184164, “Design, synthesis and biological evaluation of novel oseltamivir derivatives as potent neuraminidase inhibitors” (Bioorg Med Chem Lett, 2017).

Assays:
Sialidase = molecular target: T1, Sialidase (Clostridium perfringens, UniProt P10481); test: Inhibition of Clostridium perfringenes neuraminidase activity using 4-methylumbelliferyl-1-alpha-D-N-acetylneuramic acid sodium salt hydrate as substrate by fluorescence based assay
T1 sequence (P10481 whole entry): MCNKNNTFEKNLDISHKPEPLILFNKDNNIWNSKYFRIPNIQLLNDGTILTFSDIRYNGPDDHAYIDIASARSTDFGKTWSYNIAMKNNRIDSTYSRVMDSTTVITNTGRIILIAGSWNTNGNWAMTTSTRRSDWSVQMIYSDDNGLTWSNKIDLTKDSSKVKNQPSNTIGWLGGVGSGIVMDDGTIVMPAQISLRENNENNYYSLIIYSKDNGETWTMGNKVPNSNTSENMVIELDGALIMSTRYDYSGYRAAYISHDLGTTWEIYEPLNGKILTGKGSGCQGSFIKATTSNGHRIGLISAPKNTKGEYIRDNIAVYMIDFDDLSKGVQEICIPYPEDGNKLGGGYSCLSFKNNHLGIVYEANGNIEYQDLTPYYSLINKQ

Influenza A virus = test: microbe, parasite or virus in culture; conditions: A/WSN/1933(H1N1), MDCK

SMILES | IC50 (Sialidase; read-out: IC50) | IC50 (Influenza A virus) | IC50 (Sialidase; read-out: pIC50 (converted))
CCOC(=O)C1=C[C@@H](OC(CC)CC)[C@H](NC(C)=O)[C@@H](N)C1 [OSELTAMIVIR] | 61100 nM | 579 nM | –
CCC(=O)N[C@@H]1C=C(C(=O)O)C[C@H](N)[C@H]1NC(C)=O | – | – | 2700 nM
CC(=O)N[C@H]1[C@H](N(C)CCc2ccccc2)C=C(C(=O)O)C[C@@H]1N | – | – | 100 nM
CC(=O)N[C@@H]1[C@@H](N)CC(C(=O)O)=C[C@H]1NC(=O)C(C)C | – | – | 6400 nM
CC(=O)N[C@@H]1[C@@H](N)CC(C(=O)O)=C[C@H]1OCCC(F)(F)F | – | – | 225 nM
CC[C@@H](CCC1CCCCC1)O[C@@H]1C=C(C(=O)O)C[C@H](N)[C@H]1NC(C)=O | – | – | 1 nM
CCC(CC)N[C@@H]1C=C(C(=O)O)C[C@H](N)[C@H]1NC(C)=O | – | – | 11 nM
CCCCN(C)[C@@H]1C=C(C(=O)O)C[C@H](N)[C@H]1NC(C)=O | – | – | 180 nM
CCC(CC)[C@H](NC(C)=O)[C@@H]1[C@H](O)[C@@H](C(=O)O)C[C@H]1NC(=N)N [PERAMIVIR ANHYDROUS] | 39600 nM | 1720 nM | –
CCCN(CC)[C@@H]1C=C(C(=O)O)C[C@H](N)[C@H]1NC(C)=O | – | – | 89.9 nM
CCC(CC)N(C)[C@@H]1C=C(C(=O)O)C[C@H](N)[C@H]1NC(C)=O | – | – | 6 nM
CC[C@H](C)O[C@@H]1C=C(C(=O)O)C[C@H](N)[C@H]1NC(C)=O | – | – | 10 nM
CC[C@H](C)O[C@@H]1C=C(C(=O)O)C[C@H](NC(=N)N)[C@H]1NC(C)=O | – | – | 0.5 nM
CC(=O)N[C@@H]1[C@@H](N)CC(C(=O)O)=C[C@H]1OCC(C)C | – | – | 200 nM
CC[C@@H](C)O[C@@H]1C=C(C(=O)O)C[C@H](NC(=N)N)[C@H]1NC(C)=O | – | – | 0.5 nM
CC(=O)N[C@@H]1[C@@H](N)CC(C(=O)O)=C[C@H]1OCc1ccccc1 | – | – | 619 nM
C=CC[C@H](CC)O[C@@H]1C=C(C(=O)O)C[C@H](N)[C@H]1NC(C)=O | – | – | 1 nM
COCO[C@@H]1C=C(C(=O)O)C[C@H](N)[C@H]1NC(C)=O | – | – | 2000 nM

SMILES | IC50 (Sialidase; read-out: IC50) | IC50 (Influenza A virus) | IC50 (Sialidase; read-out: pIC50 (converted))
CC(=O)N[C@@H]1[C@@H](N)CC(C(=O)O)=C[C@H]1OC(C)C | – | – | 180 nM
CCCCO[C@@H]1C=C(C(=O)O)C[C@H](N=C(N)N)[C@H]1NC(C)=O | – | – | 3 nM
CCCCCCC[C@H](CC)O[C@@H]1C=C(C(=O)O)C[C@H](N)[C@H]1NC(C)=O | – | – | 1 nM
CCC(CC)O[C@@H]1C(F)=C(C(=O)O)C[C@H](N)[C@H]1NC(C)=O | – | – | 3 nM
CCCN(CCC)[C@@H]1C=C(C(=O)O)C[C@H](N)[C@H]1NC(C)=O | – | – | 12 nM
CC(=O)N[C@@H]1[C@@H](N)CC(C(=O)O)=C[C@H]1OCCCc1ccc(-c2ccccc2)cc1 | – | – | 89.9 nM
CC[C@@H](CC1CCCCC1)O[C@@H]1C=C(C(=O)O)C[C@H](N)[C@H]1NC(C)=O | – | – | 16 nM
CC(=O)N[C@H]1[C@H](N(C)C2CCCCC2)C=C(C(=O)O)C[C@@H]1N | – | – | 200 nM
CCCN[C@@H]1C=C(C(=O)O)C[C@H](N)[C@H]1NC(C)=O | – | – | 200 nM
CCC(CC)C(=O)N[C@@H]1C=C(C(=O)O)C[C@H](N)[C@H]1NC(C)=O | – | – | 4000 nM
CCC(CC)O[C@@H]1C=C(C(=O)O)C[C@H](NC(=N)N)[C@H]1NC(C)=O | – | – | 0.5 nM
CCCCN(CC)[C@@H]1C=C(C(=O)O)C[C@H](N)[C@H]1NC(C)=O | – | – | 84.9 nM
CC(=O)N[C@@H]1[C@@H](N)CC(C(=O)O)=C[C@H]1OC1CCCC1 | – | – | 22 nM
CC(=O)N[C@H]1[C@H](O)C=C(C(=O)O)C[C@@H]1N=C(N)N | – | – | 100 nM
CC(=O)N[C@@H]1[C@@H](N)CC(C(=O)O)=C[C@H]1Oc1ccccc1 | – | – | 530 nM
CCCO[C@@H]1C=C(C(=O)O)C[C@H](N=C(N)N)[C@H]1NC(C)=O | – | – | 2 nM
CC[C@H](CCc1ccccc1)O[C@@H]1C=C(C(=O)O)C[C@H](N)[C@H]1NC(C)=O | – | – | 12 nM
